What was measured:
[1] = tested on: HepG2 cells; experiment: Cytotoxicity assay and overall effect (cell counts by flow cytometry); type: cell-based, human
Experimental: (§1) All combination experiments were performed at a frequency of 150 kHz. In these examples, the electric field intensity was 1.0 V/cm for HepG2 and 1.7 V/cm for Huh-7D12 cells. Both cell lines were grown at various sorafenib concentrations (0.1-3.0 μM), and were treated with TTFields for 72 hours. […] The number of cells was determined at the end of treatment and is expressed as a percentage of control cells.
(§2) Sorafenib was obtained from BioVision, USA.
(§3) TTFields (1.0-1.7 V/cm RMS, 150 kHz) were applied for 72 hours to cell lines using the Inovitro™ system. At the end of treatment, inhibition of tumor cell growth was analysed quantitatively based on cell counts performed on EC800 flow cytometer (Sony Biotechnology, Japan).

[2] = tested on: Huh-7D12 cells; experiment: as above; type: cell-based, human
Experimental: as §1, §2, §3

[3] = tested on: HepG2 cells; experiment: Clonogenic survival; type: cell-based, human
Experimental: as §2
(§4) At the end of treatment, cells were removed with trypsin, counted, plated in 6-well plates (300 cells/plate) and incubated for 2-3 weeks in CO2 incubator at 37° C. When colonies reached 40-100 cells/colony, they were fixed with 100% methanol, stained with 0.5% crystal violet (Sigma), photographed, and the number of clones was quantified using ImageJ program.

[4] = tested on: Huh-7D12 cells; experiment: Clonogenic survival; type: cell-based, human
Experimental: as §2, §4

[5] = tested on: N1S1 Hepatocellular Carcinoma; experiment: N1S1 orthotopic HCC rat model, tumor volume by MRI; type: in vivo; conditions: Sprague Dawley rats, N1S1 liver tumor, sorafenib 10 mg/kg/day IP + TTFields 150 kHz 2.86 V/cm
Experimental: In this experiment, the volume of the tumor was measured using MRI on day 6 (one day before treatment start) and day 14 (one day after the end of treatment); and each data point in FIG. 7 represents the volume of the tumor on day 14 divided by the volume of the tumor on day 6. Thus, numbers greater than 1 represent growth in the tumor volume, and numbers smaller than 1 represent a tumor that has shrunk between day 6 and day 14.
In the first part, the efficacy of different Sorafenib concentrations in combination with TTFields was tested, and one concentration was used during future experiments (10 mg/kg/day over 5 days). In the following experiments, the combined treatment of a single Sorafenib concentration and TTFields (150 kHz) was tested.
All animals were injected orthotopically to the left lobe of the liver with N1S1 Hepatocellular Carcinoma model (Garin E. et al., 2005) by day 0 as described in SOP-BI-036. The peritoneum was closed using sutures and the wound was closed using clips. On day 6, all animals underwent first MRI (as described in SOP-BI-029) and were randomly divided into groups. […]
Tumor volume was determined based on MRI scans on days 7, 14 and day 21 after injection. […] Tumor volume was measured by manual segmentation of the tumor using ITK-SNAP version 3.6.0-rc1 free software.

[6] = tested on: HepG2 cells; experiment: Apoptosis induction (FITC Annexin V / 7-AAD flow cytometry)
Experimental: (§5) The exemplary effects of the combined treatment of TTFields and sorafenib was tested using the following human HCC cell lines: HepG2 (ATCC) and Huh-7D12 (Sigma). All cells were grown in a humidified incubator supplied with 5% CO2. HepG2 were maintained in EMEM, supplemented with 10% FBS, 2 mmol/L glutamine, Pen-Strep solution (100 units/ml Penicillin and 0.1 mg/ml Streptomycin), 1 mmol/L sodium pyruvate and 1% NEAA. […] Sorafenib was obtained from BioVision, USA.
(§6) For apoptosis analysis, cells were removed with Trypsin immediately after 72 h treatment, washed twice with ice-cold PBS with 1% FBS, and stained using FITC Annexin V Apoptosis Detection Kit and 7-AAD (BioLegend, USA). Early, late, and total apoptosis was then quantified using the EC800 flow cytometer (Sony Biotechnology, Japan).

[7] = tested on: Huh-7D12 cells; experiment: as above
Experimental: as §5, §6

With `CNC(=O)c1cc(Oc2ccc(NC(=O)Nc3ccc(Cl)c(C(F)(F)F)c3)cc2)ccn1` [sorafenib, 4-[4-[[4-chloro-3-(trifluoromethyl)phenyl]carbamoylamino]phenoxy]-N-methylpyridine-2-carboxamide] the “cytotoxicity of combined treatment of TTFields and sorafenib” value ([1]; HepG2, sorafenib 0.1-3.0 μM + TTFields 150 kHz 1.0 V/cm, 72 hours, 2-way ANOVA p<0.001) was “enhanced cytotoxicity”, the “overall effect, sorafenib in combination with TTFields vs sorafenib alone” value ([1]; HepG2, sorafenib 0.1-3.0 μM, TTFields 1.0 V/cm) was “improvement provided by TTFields can be seen even at low levels of sorafenib” and the IC50 ([1]; Homo sapiens, HepG2, sorafenib alone, 72 hours, read-out: IC50 (number of cells, percentage of control)) was about 1000 nM. For the same compound, the IC50 ([2]; Homo sapiens, Huh-7D12, sorafenib alone, 72 hours, read-out: IC50 (number of cells, percentage of control)) was about 1000 nM, the “cytotoxicity of combined treatment of TTFields and sorafenib” value ([2]; Huh-7D12, sorafenib 0.1-3.0 μM + TTFields 150 kHz 1.7 V/cm, 72 hours, 2-way ANOVA p<0.001) was “enhanced cytotoxicity” and the “overall effect, sorafenib in combination with TTFields vs sorafenib alone” value ([2]; Huh-7D12, sorafenib 0.1-3.0 μM, TTFields 1.7 V/cm) was “improvement provided by TTFields can be seen even at low levels of sorafenib”. For the same compound, the “clonogenic potential, sorafenib monotherapy” value ([3]; HepG2, escalating dose of sorafenib alone) was “reduction in the clonogenic potential”, the “clonogenic survival, combined treatment of TTFields and sorafenib” value ([3]; HepG2, sorafenib + TTFields 150 kHz 1.0 V/cm, 72 hours) was “additional reduction in the clonogenic survival” and the “clonogenic potential, sorafenib monotherapy” value ([4]; Huh-7D12, escalating dose of sorafenib alone) was “reduction in the clonogenic potential”. For the same compound, the “clonogenic survival, combined treatment of TTFields and sorafenib” value ([4]; Huh-7D12, sorafenib + TTFields 150 kHz 1.7 V/cm, 72 hours) was “additional reduction in the clonogenic survival”, the “tumor volume (day 14 divided by day 6, MRI), combination of TTFields and sorafenib” value [5] was “synergistic decrease in tumor volume” and the “apoptotic events, sorafenib alone” value ([6]; HepG2, 72 hours, sorafenib from no drug to 3 μM) was “increased apoptotic events”. The “additional increase in apoptosis, sorafenib with TTFields” value ([6]; HepG2, sorafenib + TTFields 150 kHz 1.0 V/cm, 72 hours, range stated for both cell lines) was 10-45%, the “apoptotic events, sorafenib alone” value ([7]; Huh-7D12, 72 hours, sorafenib from no drug to 3 μM) was “increased apoptotic events” and the “additional increase in apoptosis, sorafenib with TTFields” value ([7]; Huh-7D12, sorafenib + TTFields 150 kHz 1.7 V/cm, 72 hours, range stated for both cell lines) was 10-45%.
